Measurements published in patent publication US7371766B2, “Curcumin analogs with anti-tumor and anti-angiogenic properties” (Emory University, priority 1999, dated 2008).
Where two headings read alike, the source gives them in different places.

Legend:
[1] = tested on: Vascular Endothelial Growth Factor (VEGF) production by human prostate cancer cell line DU-145; test: VEGF ELISA, DU-145; type: cell-based; details: Table 4, 20 μM
[2] = tested on: Vascular Endothelial Growth Factor (VEGF) production by human prostate cancer cell line PC-3; test: VEGF ELISA, PC-3; type: cell-based; details: Table 4, 20 μM
RPMI-7951 human melanoma = test: Neutral Red Assay, cell viability, RPMI-7951; details: for viability at 5 µM / viability at 20 µM: Homo sapiens; for Cell Viability / Neutral Red Uptake, %: RPMI-7951; for Cell Viability: DMSO = 100; for Neutral Red Uptake, %: 72 hours
Description: RPMI-795 1, MDA-MB-231 and MDA-MB-435 cell lines were cultured in MEM-alpha medium (GIBCO-BRL, Long Island, N.Y.) containing 10% fetal bovine serum (RPMI-7951, MDA-MB-231) or 5% FBS (MDA-MB-435) at 37° C. and under 5% CO2/95% air. […] The cells were cultured in 48 well plates in all of the experiments described.
Neutral Red Assay was utilized to determine the effect of the compounds of the present invention on cell viability. Neutral Red was purchased from GIBCO-BRL (Long Island, N.Y.). Cells were plated at a concentration of 20,000 cells/well and cultured overnight. Compounds or vehicle (DMSO 0.1%) were then added and the plates were incubated for 72 hours. Supernatant from each well was either aspirated or collected and media containing Neutral Red (GIBCO-BRL, Long Island, N.Y.) at a concentration of 15 μl/ml was then added to each well. The plates were then incubated at 37° C. for 30 minutes. Next, the cells were washed with twice with PBS and alcoholic-HCl (0.5N—HCl/35% ethanol) was added to each well. The plates were then placed on a plate shaker until all residues were solubilized (pink color). The solubilized mixtures were then transferred to a 96 well plate and the absorbances were read on a micro-test plate reader at a wavelength of 570 nm.
Cell viability was determined by Neutral Red Assay.

[3] = tested on: Vascular Endothelial Growth Factor (VEGF) production by human melanoma cell line RPMI-7951; test: VEGF ELISA, RPMI-7951; details: for activity at 5 µM / activity at 20 µM: Homo sapiens, RPMI-7951, 72 h, read-out: VEGF; for VEGF ELISA / VEGF: RPMI-7951; for VEGF ELISA: DMSO control 3713
[4] = tested on: Tissue Factor (TF) production by human melanoma cell line RPMI-7951; test: TF ELISA, RPMI-7951; type: cell-based
Description: IMUBIND Tissue Factor ELISA Kit (American Diagnostica Inc, Greenwich, Conn.) was used to determine TF concentration in each sample. The ELISA was carried out according to manufacturer's procedure.

[5] = RPMI-7951, 72 h, read-out: Neutral Red Uptake, %
[6] = RPMI-7951, read-out: Cell Viability
[7] = 5 μM, DMSO control 4197 (EF-25: 1045)
[8] = Table 5, 20 μM, DMSO control 7054
[9] = Table 5, 5 μM, DMSO control 7054

| Compound | viability at 20 µM (RPMI-7951 human melanoma; [5]) [%] | viability at 20 µM (RPMI-7951 human melanoma; [6]) [%] | activity at 20 µM [3] [%] | VEGF ELISA ([3]; 5 μM) [pg/ml/well] | VEGF [3, 7] [pg/mL] | VEGF ELISA ([3]; 20 μM) [pg/ml/well] | VEGF ([3]; 20 μM, DMSO control 4197) [pg/mL] | Cell Viability (RPMI-7951 human melanoma; 20 μM) [%] | VEGF ([3]; 20 μM, DMSO = 100) [%] | other results |
| --- | --- | --- | --- | --- | --- | --- | --- | --- | --- | --- |
| O=S(=O)(NCc1ccccc1)NCc1ccccc1 [Compound A272] |  |  |  |  |  |  |  |  |  | VEGF ([1]; DMSO = 100): 129%; VEGF ([1]; mean of triplicate and S.D.): 24155 ± 4635 pg/mL; VEGF ([2]; DMSO = 100): 89%; VEGF ([2]; mean of triplicate and S.D.): 1864 ± 339 pg/mL |
| COc1ccc(CNS(=O)(=O)NCc2ccc(OC)c(OC)c2)cc1OC [Compound A277a] |  |  |  |  |  |  |  |  |  | VEGF ([1]; DMSO = 100): 146%; VEGF ([1]; mean of triplicate and S.D.): 27403 ± 3143 pg/mL; VEGF ([2]; DMSO = 100): 95%; VEGF ([2]; mean of triplicate and S.D.): 2007 ± 30 pg/mL |
| COc1ccc(CNC(=O)NCc2ccc(OC)c(OC)c2)cc1OC [Compound A277b] |  |  |  |  |  |  |  |  |  | VEGF ([1]; DMSO = 100): 145%; VEGF ([1]; mean of triplicate and S.D.): 27124 ± 1346 pg/mL; VEGF ([2]; DMSO = 100): 89%; VEGF ([2]; mean of triplicate and S.D.): 1868 ± 38 pg/mL |
| CN(C)/N=N/c1[nH]cnc1C(N)=O [Decabazine, Decarbazine, reference compound] | 100 | 99 | 31 | 1136 | 1171 | 1531 | 1293 |  |  | viability at 5 µM (RPMI-7951 human melanoma; [5]): 100%; viability at 5 µM (RPMI-7951 human melanoma; [6]): 91%; activity at 5 µM [3]: 28% |
| CON=C(/C=C/c1ccccc1O)/C=C/c1ccccc1O [EF6, N-(Methoxy)-1,5-bis(2-hydroxyphenyl)penta-1,4-dien-3-imine] |  | 72 | 45 |  |  |  |  |  |  |  |
| O=C(C=Cc1ccccc1F)C=Cc1ccccc1F [EF8, 1,5-Bis(2-fluorophenyl)penta-1,4-dien-3-one] | 8 | 54 | 1 | 2208 | 2276 | 319 | 35 |  |  | viability at 5 µM (RPMI-7951 human melanoma; [5]): 97%; viability at 5 µM (RPMI-7951 human melanoma; [6]): 94%; activity at 5 µM [3]: 54% |
| O=C(C=Cc1ccc(F)c(F)c1)C=Cc1ccc(F)c(F)c1 [EF10, 1,5-Bis(3,4-difluorophenyl)penta-1,4-dien-3-one] | 8 | 54 | 5 |  |  | 257 | 217 |  |  |  |
| O=S(=O)(/C=C/c1ccccc1)/C=C/c1ccccc1 [EF12, 3,5-Bisbenzylidenesulfone] |  |  |  |  |  |  |  | 92 | 70 |  |
| [O-][S+](/C=C/c1ccccc1)/C=C/c1ccccc1 [EF13, E,E-3,5-Bisbenzylidenesulfoxide] |  |  |  |  |  |  |  | 92 | 53 |  |
| Oc1ccccc1CCC(O)CCc1ccccc1O [EF32, 1,5-Bis(2-hydroxyphenyl)-pentan-3-ol] |  |  |  |  |  |  |  |  |  | TF ([4]; 20 μM, DMSO = 100): 123%; TF [4, 8]: 8654 pg/mL |
| COc1ccc(CCC(O)CCc2ccc(OC)c(OC)c2)cc1OC [MD279L, 1,5-Bis(3,4-dimethoxyphenyl)penta-3-ol] |  |  |  | 2235 | 904 | 1603 | 0 | 109 | 0 | Neutral Red Uptake, % (RPMI-7951 human melanoma; 5 μM): 100 % of control; Cell Viability (RPMI-7951 human melanoma; 5 μM): 110%; Neutral Red Uptake, % (RPMI-7951 human melanoma; 20 μM): 100 % of control; TF ([4]; 5 μM, DMSO = 100): 82%; TF ELISA ([4]; 5 μM, DMSO control 7054): 5791 pg/ml/well; TF ([4]; 20 μM, DMSO = 100): 83%; TF ELISA ([4]; 20 μM, DMSO control 7054): 5858 pg/ml/well; TF [4, 9]: 5791 pg/mL; TF [4, 8]: 5858 pg/mL; VEGF ([3]; 5 μM, DMSO = 100): 22% |
| COc1ccc(CCC(=O)CCc2ccc(OC)c(OC)c2)cc1OC [MD279U, 1,5-Bis(3,4-dimethoxyphenyl)penta-3-one] |  |  |  | 2511 | 1197 | 779 | 1179 | 113 | 18 | Neutral Red Uptake, % (RPMI-7951 human melanoma; 5 μM): 100 % of control; Cell Viability (RPMI-7951 human melanoma; 5 μM): 112%; Neutral Red Uptake, % (RPMI-7951 human melanoma; 20 μM): 100 % of control; TF ([4]; 5 μM, DMSO = 100): 102%; TF ELISA ([4]; 5 μM, DMSO control 7054): 7200 pg/ml/well; TF ([4]; 20 μM, DMSO = 100): 75%; TF ELISA ([4]; 20 μM, DMSO control 7054): 5316 pg/ml/well; TF [4, 9]: 7200 pg/mL; TF [4, 8]: 5316 pg/mL; VEGF ([3]; 5 μM, DMSO = 100): 28% |
| O=C1CCC(N2C(=O)c3ccccc3C2=O)C(=O)N1 (stereo not drawn) [Thalidomide, reference compound] | 100 | 97 | 57 | 1810 | 1865 | 2827 | 2387 |  |  | viability at 5 µM (RPMI-7951 human melanoma; [5]): 100%; viability at 5 µM (RPMI-7951 human melanoma; [6]): 105%; activity at 5 µM [3]: 44% |
